Assay results as given in PubChem BioAssay (NCI).
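Method: 48-hour compound exposure of cells in 96-well plates, five concentrations, linear interpolation of endpoints. GI50 = concentration required for 50% inhibition of growth. Definition used: TGI = concentration required for complete inhibition of growth.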

Legend:
Assay in all cases: DTP human tumour cell line panel, 48 h
CCRF-CEM leukemia = system: CCRF-CEM leukemia
RXF 393 renal = system: RXF 393 renal
U251 CNS = system: U251 CNS
SW-620 colon = system: SW-620 colon
SK-MEL-28 melanoma = system: SK-MEL-28 melanoma
PC-3 prostate = system: PC-3 prostate
ACHN renal = system: ACHN renal
OVCAR-4 ovarian = system: OVCAR-4 ovarian
SF-268 CNS = system: SF-268 CNS
OVCAR-3 ovarian = system: OVCAR-3 ovarian
HCC-2998 colon = system: HCC-2998 colon
HCT-15 colon = system: HCT-15 colon
SF-539 CNS = system: SF-539 CNS
SK-OV-3 ovarian = system: SK-OV-3 ovarian
NCI/ADR-RES ovarian = system: NCI/ADR-RES ovarian
T-47D breast = system: T-47D breast
NCI-H23 lung = system: NCI-H23 lung
OVCAR-8 ovarian = system: OVCAR-8 ovarian
A498 renal = system: A498 renal
SNB-75 CNS = system: SNB-75 CNS
TK-10 renal = system: TK-10 renal
UO-31 renal = system: UO-31 renal
MOLT-4 leukemia = system: MOLT-4 leukemia
HS 578T breast = system: HS 578T breast
UACC-62 melanoma = system: UACC-62 melanoma
A549 NSCLC = system: A549 NSCLC
EKVX NSCLC = system: EKVX NSCLC
OVCAR-5 ovarian = system: OVCAR-5 ovarian
MALME-3M melanoma = system: MALME-3M melanoma
SN12C renal = system: SN12C renal
SF-295 CNS = system: SF-295 CNS
LOX IMVI melanoma = system: LOX IMVI melanoma
NCI-H226 lung = system: NCI-H226 lung
BT-549 breast = system: BT-549 breast
MDA-MB-231 breast = system: MDA-MB-231 breast
HL-60(TB) leukemia = system: HL-60(TB) leukemia
DU-145 prostate = system: DU-145 prostate
M14 melanoma = system: M14 melanoma
HCT-116 colon = system: HCT-116 colon
UACC-257 melanoma = system: UACC-257 melanoma
MDA-MB-435 = system: MDA-MB-435
K-562 leukemia = system: K-562 leukemia
SR leukemia = system: SR leukemia
HOP-92 NSCLC = system: HOP-92 NSCLC
HT29 colon = system: HT29 colon
IGROV1 ovarian = system: IGROV1 ovarian
RPMI-8226 leukemia = system: RPMI-8226 leukemia
MCF7 breast = system: MCF7 breast
SNB-19 CNS = system: SNB-19 CNS
786-0 renal = system: 786-0 renal
COLO 205 colon = system: COLO 205 colon
CAKI-1 renal = system: CAKI-1 renal
SK-MEL-5 melanoma = system: SK-MEL-5 melanoma
NCI-H460 lung = system: NCI-H460 lung
KM12 colon = system: KM12 colon
NCI-H522 lung = system: NCI-H522 lung
SK-MEL-2 melanoma = system: SK-MEL-2 melanoma
HOP-62 NSCLC = system: HOP-62 NSCLC

SMILES: O=C(N/N=C/c1ccc([N+](=O)[O-])o1)c1[nH]c2ccc(Br)cc2c1-c1ccccc1
- GI50 (CCRF-CEM leukemia): 414 nM
- TGI (CCRF-CEM leukemia): 45800 nM
- GI50 (RXF 393 renal): 294 nM
- TGI (RXF 393 renal): 1090 nM
- GI50 (U251 CNS): 303 nM
- TGI (U251 CNS): 1560 nM
- GI50 (SW-620 colon): 359 nM
- TGI (SW-620 colon): 1970 nM
- GI50 (SK-MEL-28 melanoma): 1170 nM
- TGI (SK-MEL-28 melanoma): 7190 nM
- GI50 (PC-3 prostate): 400 nM
- TGI (PC-3 prostate): 6390 nM
- GI50 (ACHN renal): 379 nM
- TGI (ACHN renal): 6110 nM
- GI50 (OVCAR-4 ovarian): 720 nM
- TGI (OVCAR-4 ovarian): 10500 nM
- GI50 (SF-268 CNS): 564 nM
- TGI (SF-268 CNS): 11000 nM
- GI50 (OVCAR-3 ovarian): 433 nM
- TGI (OVCAR-3 ovarian): 4090 nM
- GI50 (HCC-2998 colon): 367 nM
- TGI (HCC-2998 colon): 1600 nM
- GI50 (HCT-15 colon): 230 nM
- TGI (HCT-15 colon): 987 nM
- GI50 (SF-539 CNS): 177 nM
- TGI (SF-539 CNS): 514 nM
- GI50 (SK-OV-3 ovarian): 501 nM
- TGI (SK-OV-3 ovarian): 8370 nM
- GI50 (NCI/ADR-RES ovarian): 234 nM
- TGI (NCI/ADR-RES ovarian): 2830 nM
- GI50 (T-47D breast): 1790 nM
- TGI (T-47D breast): 24000 nM
- GI50 (NCI-H23 lung): 393 nM
- TGI (NCI-H23 lung): 4160 nM
- GI50 (OVCAR-8 ovarian): 241 nM
- TGI (OVCAR-8 ovarian): 677 nM
- GI50 (A498 renal): 7450 nM
- TGI (A498 renal): 24400 nM
- GI50 (SNB-75 CNS): 216 nM
- TGI (SNB-75 CNS): 1550 nM
- GI50 (TK-10 renal): 1530 nM
- TGI (TK-10 renal): 10100 nM
- GI50 (UO-31 renal): 431 nM
- TGI (UO-31 renal): 7820 nM
- GI50 (MOLT-4 leukemia): 356 nM
- TGI (MOLT-4 leukemia): 10600 nM
- GI50 (HS 578T breast): 519 nM
- TGI (HS 578T breast): 14600 nM
- GI50 (UACC-62 melanoma): 150 nM
- TGI (UACC-62 melanoma): 2070 nM
- GI50 (A549 NSCLC): 354 nM
- TGI (A549 NSCLC): 11800 nM
- GI50 (EKVX NSCLC): 1120 nM
- TGI (EKVX NSCLC): 9140 nM
- GI50 (OVCAR-5 ovarian): 439 nM
- TGI (OVCAR-5 ovarian): 14000 nM
- GI50 (MALME-3M melanoma): 682 nM
- TGI (MALME-3M melanoma): 3320 nM
- GI50 (SN12C renal): 323 nM
- TGI (SN12C renal): 1980 nM
- GI50 (SF-295 CNS): 189 nM
- TGI (SF-295 CNS): 1230 nM
- GI50 (LOX IMVI melanoma): 190 nM
- TGI (LOX IMVI melanoma): 1610 nM
- GI50 (NCI-H226 lung): 306 nM
- TGI (NCI-H226 lung): 1560 nM
- GI50 (BT-549 breast): 222 nM
- TGI (BT-549 breast): 694 nM
- GI50 (MDA-MB-231 breast): 288 nM
- TGI (MDA-MB-231 breast): 1050 nM
- GI50 (HL-60(TB) leukemia): 235 nM
- TGI (HL-60(TB) leukemia): 626 nM
- GI50 (DU-145 prostate): 406 nM
- TGI (DU-145 prostate): 12200 nM
- GI50 (M14 melanoma): 274 nM
- TGI (M14 melanoma): 1160 nM
- GI50 (HCT-116 colon): 182 nM
- TGI (HCT-116 colon): 980 nM
- GI50 (UACC-257 melanoma): 542 nM
- TGI (UACC-257 melanoma): 4350 nM
- GI50 (MDA-MB-435): 111 nM
- TGI (MDA-MB-435): 293 nM
- GI50 (K-562 leukemia): 118 nM
- TGI (K-562 leukemia): > 100000 nM
- GI50 (SR leukemia): 143 nM
- TGI (SR leukemia): 9090 nM
- GI50 (HOP-92 NSCLC): 733 nM
- TGI (HOP-92 NSCLC): 4390 nM
- GI50 (HT29 colon): 307 nM
- TGI (HT29 colon): 1270 nM
- GI50 (IGROV1 ovarian): 340 nM
- TGI (IGROV1 ovarian): 10900 nM
- GI50 (RPMI-8226 leukemia): 357 nM
- TGI (RPMI-8226 leukemia): 12800 nM
- GI50 (MCF7 breast): 110 nM
- TGI (MCF7 breast): 5530 nM
- GI50 (SNB-19 CNS): 337 nM
- TGI (SNB-19 CNS): 12100 nM
- GI50 (786-0 renal): 367 nM
- TGI (786-0 renal): 4750 nM
- GI50 (COLO 205 colon): 244 nM
- TGI (COLO 205 colon): 577 nM
- GI50 (CAKI-1 renal): 382 nM
- TGI (CAKI-1 renal): 9370 nM
- GI50 (SK-MEL-5 melanoma): 235 nM
- TGI (SK-MEL-5 melanoma): 638 nM
- GI50 (NCI-H460 lung): 331 nM
- TGI (NCI-H460 lung): 1000 nM
- GI50 (KM12 colon): 410 nM
- TGI (KM12 colon): 11600 nM
- GI50 (NCI-H522 lung): 37.4 nM
- TGI (NCI-H522 lung): 345 nM
- GI50 (SK-MEL-2 melanoma): 335 nM
- TGI (SK-MEL-2 melanoma): 1700 nM
- GI50 (HOP-62 NSCLC): 541 nM
- TGI (HOP-62 NSCLC): 5360 nM
